# Data from PMC8362001 (Angewandte Chemie (International Ed. in English), 2021).
# What was measured:
# [1] = Hydrolysis of the P−N bond under acidic conditions; format: physicochemical; settings: slightly acidic conditions (pH≤3)
# eGFP (C70M S147C) = eGFP (C70M S147C) (Aequorea victoria, UniProt P42212, C70M/F64L/H231L/S147C/S65T); assay: Second-order rate constant of the reaction with eGFP, intact protein MS; settings: one equivalent of eGFP (C70M S147C), Tris buffer pH 8.3, 90 μM, room temperature, eGFP C70M as internal standard, triplicate
SMILES,Hydrolytic stability of the P−N bond [1],second‐order rate constant (eGFP (C70M S147C))
C#CP(=O)(C#C)N(CC)CC [II],rapid hydrolysis of the P−N bond,
C#CCCOP(=O)(C#C)C#C [compound 2],,approximately 0.47 M^−1 s^−1
